US20060183119A1, “Method for determining predisposition to a physiological reaction in a patient” (UNIVERSITE LAVAL, priority 2002, published 2006)
Where a chain is given by its changes, count along the chain named.

How the values were obtained:
UGT1A7*2 = target: T1, UGT1A7*2 (Homo sapiens, UniProt Q9HAW7, N129K/R131K); test: SN-38 glucuronidation by microsomes of HEK293 cells expressing UGT1A7*2; assay type: in vitro ADME; parameters: key to Function (SN-38G formation versus *1 allele): High: no significant difference in activity compared to *1 allele.; Low: significantly lower SN-38G formation versus *1 allele
T1 construct: expressed in transfected cells
T1 sequence (Q9HAW7 26-530 N129K/R131K): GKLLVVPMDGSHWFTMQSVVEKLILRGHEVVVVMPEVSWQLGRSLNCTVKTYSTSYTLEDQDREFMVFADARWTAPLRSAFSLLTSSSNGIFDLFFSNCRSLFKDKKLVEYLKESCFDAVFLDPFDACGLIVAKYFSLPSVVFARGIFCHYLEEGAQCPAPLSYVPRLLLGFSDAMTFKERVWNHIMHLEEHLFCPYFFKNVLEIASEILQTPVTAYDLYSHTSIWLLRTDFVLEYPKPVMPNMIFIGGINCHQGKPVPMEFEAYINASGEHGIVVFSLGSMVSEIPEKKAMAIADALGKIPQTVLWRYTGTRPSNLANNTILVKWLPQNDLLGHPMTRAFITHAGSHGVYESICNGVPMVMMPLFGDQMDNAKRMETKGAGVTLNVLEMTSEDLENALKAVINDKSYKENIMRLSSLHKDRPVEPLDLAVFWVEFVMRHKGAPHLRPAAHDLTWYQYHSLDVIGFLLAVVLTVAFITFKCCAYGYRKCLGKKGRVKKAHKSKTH
Method: (§1) Western blot analyses of UGT1A7 and UGT1A9 variants expressed in HEK293 cells were performed on microsomal proteins (10 μg) separated on a 10% SDS-polyacrylamide gel. After transferring the proteins, the membranes were probed with an anti-UGT1A RC-71 polyclonal antibody and with an anti-calnexin antibody. The relative levels of UGT1A9 (a) and UGT1A7 proteins (b) were determined by semi-quantitative densitometric analysis of the Enhanced chemiluminescence (ECL) image. The in vitro SN-38 activity was assessed using microsomal fractions prepared from HEK293 cells expressing the *1 and variant UGT1A9 (c) and UGT1A7 (d) alleles and incubated with 5 μM of SN-38 as described in Materials and Methods.
(§2) For the determination of Vmax and Km.

UGT1A7*3 = target: T2, UGT1A7*3 (Homo sapiens, UniProt Q9HAW7, N129K/R131K/W208R); test: SN-38 glucuronidation by microsomes of HEK293 cells expressing UGT1A7*3; assay type: in vitro ADME; parameters: key to Function (SN-38G formation versus *1 allele): High: no significant difference in activity compared to *1 allele.; Low: significantly lower SN-38G formation versus *1 allele
T2 construct: expressed in transfected cells
T2 sequence (Q9HAW7 26-530 N129K/R131K/W208R): T1 sequence (Q9HAW7 26-530 N129K/R131K) with W183R
Method: as §1, §2

`CCc1c2c(nc3ccc(O)cc13)-c1cc3c(c(=O)n1C2)COC(=O)[C@]3(O)CC` [SN-38, 7-ethyl-10-hydroxycamptothecin] was tested, and the “SN-38 glucuronidating activity of the allele (in words)” value (UGT1A7*2) was “highest”, the “Function (SN-38G formation versus *1 allele)” value (UGT1A7*2; in vitro experiments) was “High” and the “SN-38 glucuronidating activity of the allele (in words)” value (UGT1A7*3) was “low”. The “Function (SN-38G formation versus *1 allele)” value (UGT1A7*3; in vitro experiments) was “Low”.
